Experimental data reported in the supplement of paper PMC10307832.

Assays:
Test in all cases: relative viability (nuclei count vs DMSO), 5 days (fraction); higher = more cells survive
NCI-H650 = system: NCI-H650
Summary of the method: (§1)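 Each reported value is a median over duplicate plates. It expresses relative viability: treated-well nuclei count divided by vehicle-well nuclei count. Lung cancer cell lines in 1536-well plates were dosed by pin tool a day after seeding, alone with one drug or with a fixed anchor-drug dose plus five library-drug doses (not always all listed) in √10 steps, and nuclei were counted after 5 days.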

NCI-H2126 = system: NCI-H2126
Summary of the method: as §1

PC-14 = system: PC-14
Summary of the method: as §1

NCI-H1651 = system: NCI-H1651
Summary of the method: as §1

NCI-H2023 = system: NCI-H2023
Summary of the method: as §1

HCC-15 = system: HCC-15
Summary of the method: as §1

NCI-H1915 = system: NCI-H1915
Summary of the method: as §1

HCC-44 = system: HCC-44
Summary of the method: as §1

SW 1573 = system: SW 1573
Summary of the method: as §1

EPLC-272H = system: EPLC-272H
Summary of the method: as §1

NCI-H2085 = system: NCI-H2085
Summary of the method: as §1

`COc1cc2nccc(Oc3ccc(NC(=O)Nc4cc(C)on4)c(Cl)c3)c2cc1OC` [Tivozanib] + Nc1ncn([C@H]2C[C@H](O)[C@@H](CO)O2)c(=O)n1 [Decitabine] (partner 2 µM) was tested, and the relative viability (NCI-H650; first compound 0.005 µM) was 0.296, the relative viability (NCI-H650; first compound 0.01581 µM) was 0.299 and the relative viability (NCI-H650; first compound 0.05 µM) was 0.35. It also gave a relative viability (NCI-H650; first compound 0.1581 µM) of 0.312, a relative viability (NCI-H650; first compound 0.5 µM) of 0.294 and a relative viability (NCI-H2126; first compound 0.005 µM) of 0.645. It also gave a relative viability (NCI-H2126; first compound 0.01581 µM) of 0.584, a relative viability (NCI-H2126; first compound 0.05 µM) of 0.612 and a relative viability (NCI-H2126; first compound 0.1581 µM) of 0.602. It also gave a relative viability (NCI-H2126; first compound 0.5 µM) of 0.578, a relative viability (PC-14; first compound 0.005 µM) of 0.195 and a relative viability (PC-14; first compound 0.01581 µM) of 0.214. For the same molecule, the relative viability (PC-14; first compound 0.05 µM) was 0.216, the relative viability (PC-14; first compound 0.1581 µM) was 0.252 and the relative viability (PC-14; first compound 0.5 µM) was 0.153. The relative viability (NCI-H1651; first compound 0.005 µM) was 0.572, the relative viability (NCI-H1651; first compound 0.01581 µM) was 0.551 and the relative viability (NCI-H1651; first compound 0.05 µM) was 0.675. For the same molecule, the relative viability (NCI-H1651; first compound 0.1581 µM) was 0.438, the relative viability (NCI-H1651; first compound 0.5 µM) was 0.524 and the relative viability (NCI-H2023; first compound 0.005 µM) was 0.223. It also gave a relative viability (NCI-H2023; first compound 0.01581 µM) of 0.219, a relative viability (NCI-H2023; first compound 0.05 µM) of 0.24 and a relative viability (NCI-H2023; first compound 0.1581 µM) of 0.242. For the same molecule, the relative viability (NCI-H2023; first compound 0.5 µM) was 0.213, the relative viability (HCC-15; first compound 0.005 µM) was 0.613 and the relative viability (HCC-15; first compound 0.01581 µM) was 0.612. It also gave a relative viability (HCC-15; first compound 0.05 µM) of 0.641, a relative viability (HCC-15; first compound 0.1581 µM) of 0.727 and a relative viability (HCC-15; first compound 0.5 µM) of 0.639. For the same molecule, the relative viability (NCI-H1915; first compound 0.005 µM) was 0.281, the relative viability (NCI-H1915; first compound 0.01581 µM) was 0.281 and the relative viability (NCI-H1915; first compound 0.05 µM) was 0.253. The relative viability (NCI-H1915; first compound 0.1581 µM) was 0.293, the relative viability (NCI-H1915; first compound 0.5 µM) was 0.268 and the relative viability (HCC-44; first compound 0.005 µM) was 0.92. For the same molecule, the relative viability (HCC-44; first compound 0.01581 µM) was 0.964, the relative viability (HCC-44; first compound 0.05 µM) was 0.956 and the relative viability (HCC-44; first compound 0.1581 µM) was 0.982. It also gave a relative viability (HCC-44; first compound 0.5 µM) of 0.937, a relative viability (SW 1573; first compound 0.005 µM) of 0.461 and a relative viability (SW 1573; first compound 0.01581 µM) of 0.446. The relative viability (SW 1573; first compound 0.05 µM) was 0.487, the relative viability (SW 1573; first compound 0.1581 µM) was 0.376 and the relative viability (SW 1573; first compound 0.5 µM) was 0.451. The relative viability (EPLC-272H; first compound 0.005 µM) was 0.342, the relative viability (EPLC-272H; first compound 0.01581 µM) was 0.416 and the relative viability (EPLC-272H; first compound 0.05 µM) was 0.391. The relative viability (EPLC-272H; first compound 0.1581 µM) was 0.409, the relative viability (EPLC-272H; first compound 0.5 µM) was 0.365 and the relative viability (NCI-H2085; first compound 0.005 µM) was 0.536. For the same molecule, the relative viability (NCI-H2085; first compound 0.01581 µM) was 0.609, the relative viability (NCI-H2085; first compound 0.05 µM) was 0.619 and the relative viability (NCI-H2085; first compound 0.1581 µM) was 0.578. It also gave a relative viability (NCI-H2085; first compound 0.5 µM) of 0.562.
